Data taken from US20220264878A1, “HERBICIDAL COMPOSITION CONTAINING R-TYPE PYRIDYLOXY CARBOXYLIC ACID DERIVATIVE AND USE THEREOF” (Qingdao Kingagroot Chemical Compound Co., Ltd., priority 2019, published 2022).
Read-outs that look alike come from different tables or passages of the source.

What was measured:
Test in all cases: Post-emergence foliage spray, pot culture, fresh weight inhibition (Tables 1-48, 51-98, 101-148; 24 days)
Assay type in all cases: in vivo
[1] = test system: Chenopodium album
Outline: (§1)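 Pot-grown weeds were thinned to 15 per pot (45 per treatment) and sprayed on foliage at the 5–6-leaf stage for grasses or the 6–7-leaf stage for broadleaves. Agents were dissolved in acetone with 0.1% Tween-80 and applied at 450 kg/ha spray volume and 0.3 MPa. Plants were then kept in a greenhouse. Above-ground fresh weight of survivors, with dead plants counted as zero, gave inhibition versus a solvent/emulsifier blank.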

[2] = test system: Acalypha australis
Text: Table 1-48, 51-98, 101-148: Echinochloa crusgalli var. zelayensis, Eclipta prostrate, Galium aparine L., Alopecurus aequalis, Alopecurus japonicus, Lindernia procumbens, Veronica persica^1, Malachium aquaticum, Beckmannia syzigachne, Stellaria media were collected in Huai'an of Jiangsu Province; Commelina communis, Sonchus arvensis, Setaria glauca, Chloris virgata, Setaria faberi, Sonchus oleraceus L., Echinochloa oryzoides, Cirsium setosum, Xanthium strumarium were collected in Qiqiha'er of Heilongjiang Province; Sinapis arvensis, Veronica persica^2 were collected in Zhumadian of Henan Province; Ludwigia prostrate, Ammannia arenaria were collected in Zhuji of Zhejiang Province; Amaranthus retrojlexus, Descurainia sophia, Digitaria sanguinalis, Setaria viridis, Conyza Canadensis, Capsella bursa-pastoris, Eleusine indica, Ipomoea purpurea, Abutilon theophrasti, Chenopodium album, Acalypha australis, Solanum nigrum were collected in Qingdao of Shandong Province; Echinochloa caudate were collected in Pingluo of Ningxia Province.
The above weeds were cultivated by a pot culture method. […] Full and uniform weed seeds were selected, soaked in warm water at 25° C. for 6 hours, and germinated in a 28° C. biochemical incubator (darkness). The weed seeds that had just germinatedwere evenly placed on the surface of the soil and then covered with 0.5-1 cm soil according to the sizes of seeds.
The culture was carried out in a controllable sunlight greenhouse at 20 to 30° C., in natural light, and relative humidity of 57% to 72%.
The technical materials were all dissolved in acetone, and diluted with an aqueous solution containing 0.1% emulsifier Tween-80. The dilution is performed as required.
A ratio of the active ingredient A to the active ingredient B and amounts thereof in each group depends on the characteristics and toxicity of the two agents, as well as the main application purpose of a corresponding formulation. Based on the pre-tests in this study, the dosage of the active ingredient A and B applied alone and in combination were shown in the tables. Water containing the solvent and emulsifier same with the above groups but free of the agents was used as a blank control.
Table 1-48, 51-98, 101-148, 151-206: […] per treatment, that is, a total of 60 weeds were treated in one treatment.
Table 1-48, 51-98, 101-148: The agents were used for only once in the experiment. In the stage of weeds with 3˜4 leaves, the weeds were thinned out to maintain 15 weeds per pot and 45 weeds for each treatment, then continued to be cultured to 5˜6 leaves stage of grassy weeds, 6˜7 leaves stage of broadleaf weeds, and treated.
The well-cultured weeds were evenly placed on a platform with an area of 0.5 m^2, and a solution of agents was sprayed on the stems and leaves thereof by the 3WP-2000-type walking spray tower at a dosage of 450 kg/ha and at a spray pressure of 0.3 MPa. After all the solution was sprayed, the valve was closed. After 30 seconds, the door of the spray tower was opened, and the nutritional bowl was taken out. Then the valve was opened, and the spray tube was cleaned by spraying 50 ml of water.
A pot-culture method was employed. For the cultivation of weeds, please refer to the Section 1.1), and “Pesticide guidelines for laboratory bioactivity tests—herbicides”. As to a method for applying agents, please refer to the section 2.3.2), that is, a foliage treatment was employed. After the treatment, the weeds were routinely cultured in a greenhouse.
A method for investigating absolute number was employed, wherein whole seedlings of survival weeds were cut off with a blade along the soil surface, and the fresh weight of the weeds was weighed with an analytical balance. For dead weeds, the fresh weight thereof was zero.
Table 1-48, 51-98, 101-148, 207-216: The investigation was performed after 24 days of the treatment for only once.

[3] = test system: Echinochloa crusgalli var. zelayensis; conditions: Echinochloa crus-galli, 576 h, read-out: Control effect (%) of B applied alone in corresponding dose
Outline: as §1

[4] = test system: Echinochloa oryzoides; conditions: Echinochloa oryzoides, 576 h, read-out: Control effect (%) of B applied alone in corresponding dose
Outline: as §1

[5] = test system: Echinochloa caudate; conditions: Echinochloa, 576 h, read-out: Control effect (%) of B applied alone in corresponding dose
Outline: as §1

`N#Cc1cc(Br)c(O)c(Br)c1` [bromoxynil] was tested, and the “Control effect (%) of B applied alone in corresponding dose” value (“Control effect (%) of B applied alone” below) ([1]; bromoxynil 18.75 g a.i./ha) was 3.1%, the “Control effect (%) of B applied alone” value ([1]; bromoxynil 37.5 g a.i./ha) was 10.8% and the “Control effect (%) of B applied alone” value ([1]; bromoxynil 75 g a.i./ha) was 57.7%. For the same compound, the “Control effect (%) of B applied alone” value ([1]; bromoxynil 150 g a.i./ha) was 83.6%, the “Control effect (%) of B applied alone” value ([2]; B 18.75 g a.i./ha) was 4.6% and the “Control effect (%) of B applied alone” value ([2]; B 37.5 g a.i./ha) was 10.6%. The “Control effect (%) of B applied alone” value ([2]; B 75 g a.i./ha) was 58.9% and the “Control effect (%) of B applied alone” value ([2]; B 150 g a.i./ha) was 84.0%.
`O=C(O)COC(=O)c1cc(Oc2ccc(C(F)(F)F)cc2Cl)ccc1[N+](=O)[O-]` [fluoroglycofen] was tested, and the “Control effect (%) of B applied alone” value ([1]; Table 92, 0.9375 g a.i./ha) was 2.3%, the “Control effect (%) of B applied alone” value ([1]; Table 92, 1.875 g a.i./ha) was 12.8% and the “Control effect (%) of B applied alone” value ([1]; Table 92, 3.75 g a.i./ha) was 40.0%. The “Control effect (%) of B applied alone” value ([1]; Table 92, 7.5 g a.i./ha) was 70.6%, the “Control effect (%) of B applied alone” value ([2]; B 0.9375 g a.i./ha) was 4.0% and the “Control effect (%) of B applied alone” value ([2]; B 1.875 g a.i./ha) was 15.7%. For the same compound, the “Control effect (%) of B applied alone” value ([2]; B 3.75 g a.i./ha) was 41.6% and the “Control effect (%) of B applied alone” value ([2]; B 7.5 g a.i./ha) was 71.4%.
For `CS(=O)(=O)NC(=O)c1cc(Oc2ccc(C(F)(F)F)cc2Cl)ccc1[N+](=O)[O-]` [fomesafen], the “Control effect (%) of B applied alone” value ([1]; Table 91, 22.5 g a.i./ha) was 2.7%, the “Control effect (%) of B applied alone” value ([1]; Table 91, 45 g a.i./ha) was 18.6% and the “Control effect (%) of B applied alone” value ([1]; Table 91, 90 g a.i./ha) was 45.4%. For the same compound, the “Control effect (%) of B applied alone” value ([1]; Table 91, 180 g a.i./ha) was 81.9%, the “Control effect (%) of B applied alone” value ([2]; B 22.5 g a.i./ha) was 6.4% and the “Control effect (%) of B applied alone” value ([2]; B 45 g a.i./ha) was 12.6%. The “Control effect (%) of B applied alone” value ([2]; B 90 g a.i./ha) was 46.9% and the “Control effect (%) of B applied alone” value ([2]; B 180 g a.i./ha) was 82.4%.
For `CCOC(=O)C(C)OC(=O)c1cc(Oc2ccc(C(F)(F)F)cc2Cl)ccc1[N+](=O)[O-]` (stereo not shown) [lactofen], the “Control effect (%) of B applied alone” value ([1]; Table 94, 7.5 g a.i./ha) was 3.3%, the “Control effect (%) of B applied alone” value ([1]; Table 94, 15 g a.i./ha) was 10.4% and the “Control effect (%) of B applied alone” value ([1]; Table 94, 30 g a.i./ha) was 39.7%. The “Control effect (%) of B applied alone” value ([1]; Table 94, 60 g a.i./ha) was 65.4%, the “Control effect (%) of B applied alone” value ([2]; B 7.5 g a.i./ha) was 2.7% and the “Control effect (%) of B applied alone” value ([2]; B 15 g a.i./ha) was 13.5%. The “Control effect (%) of B applied alone” value ([2]; B 30 g a.i./ha) was 41.4% and the “Control effect (%) of B applied alone” value ([2]; B 60 g a.i./ha) was 66.4%.
`CCOc1cc(Oc2ccc(C(F)(F)F)cc2Cl)ccc1[N+](=O)[O-]` [oxyfluorfen] was tested, and the “Control effect (%) of B applied alone” value ([1]; Table 93, 7.5 g a.i./ha) was 3.6%, the “Control effect (%) of B applied alone” value ([1]; Table 93, 15 g a.i./ha) was 11.9% and the “Control effect (%) of B applied alone” value ([1]; Table 93, 30 g a.i./ha) was 30.7%. The “Control effect (%) of B applied alone” value ([1]; Table 93, 60 g a.i./ha) was 68.1%, the “Control effect (%) of B applied alone” value ([2]; B 7.5 g a.i./ha) was 4.6% and the “Control effect (%) of B applied alone” value ([2]; B 15 g a.i./ha) was 12.4%. The “Control effect (%) of B applied alone” value ([2]; B 30 g a.i./ha) was 32.7% and the “Control effect (%) of B applied alone” value ([2]; B 60 g a.i./ha) was 68.9%.
`CCS(=O)(=O)c1cccnc1S(=O)(=O)NC(=O)Nc1nc(OC)cc(OC)n1` [rimsulfuron] was tested, and the pest or weed control at 1.875 g/ha ([3]; foliar, B 1.875 g a.i./ha, foliage spray, 24 days) was 7.7%, the pest or weed control at 3.75 g/ha ([3]; foliar, B 3.75 g a.i./ha, foliage spray, 24 days) was 25.5% and the pest or weed control at 7.5 g/ha ([3]; foliar, B 7.5 g a.i./ha, foliage spray, 24 days) was 39.7%. The pest or weed control at 15 g/ha ([3]; foliar, B 15 g a.i./ha, foliage spray, 24 days) was 67.7%, the pest or weed control at 1.875 g/ha ([4]; Table 106, 1.875 g a.i./ha) was 10.3% and the pest or weed control at 3.75 g/ha ([4]; Table 106, 3.75 g a.i./ha) was 26.9%. The pest or weed control at 7.5 g/ha ([4]; Table 106, 7.5 g a.i./ha) was 43.7%, the pest or weed control at 15 g/ha ([4]; Table 106, 15 g a.i./ha) was 69.6% and the pest or weed control at 1.875 g/ha ([5]; rimsulfuron 1.875 g a.i./ha) was 5.5%. The pest or weed control at 3.75 g/ha ([5]; rimsulfuron 3.75 g a.i./ha) was 25.3%, the pest or weed control at 7.5 g/ha ([5]; rimsulfuron 7.5 g a.i./ha) was 37.9% and the pest or weed control at 15 g/ha ([5]; rimsulfuron 15 g a.i./ha) was 65.8%.
`Cc1nn(-c2cc(NS(C)(=O)=O)c(Cl)cc2Cl)c(=O)n1C(F)F` [sulfentrazone] showed a pest or weed control at 1.875 g/ha ([3]; sulfentrazone 1.875 g a.i./ha) of 2.8%, a pest or weed control at 3.75 g/ha ([3]; sulfentrazone 3.75 g a.i./ha) of 15.4% and a pest or weed control at 7.5 g/ha ([3]; sulfentrazone 7.5 g a.i./ha) of 26.9%. For the same compound, the pest or weed control at 15 g/ha ([3]; sulfentrazone 15 g a.i./ha) was 54.1%, the pest or weed control at 1.875 g/ha ([4]; B 1.875 g a.i./ha) was 5.8% and the pest or weed control at 3.75 g/ha ([4]; B 3.75 g a.i./ha) was 18.1%. For the same compound, the pest or weed control at 7.5 g/ha ([4]; B 7.5 g a.i./ha) was 29.7%, the pest or weed control at 15 g/ha ([4]; B 15 g a.i./ha) was 56.1% and the pest or weed control at 1.875 g/ha ([5]; Table 97, 1.875 g a.i./ha) was 6.6%. For the same compound, the pest or weed control at 3.75 g/ha ([5]; Table 97, 3.75 g a.i./ha) was 10.8%, the pest or weed control at 7.5 g/ha ([5]; Table 97, 7.5 g a.i./ha) was 24.5% and the pest or weed control at 15 g/ha ([5]; Table 97, 15 g a.i./ha) was 52.6%.
